Read-outs that look alike come from different tables or passages of the source.
How the values were obtained:
CYP3A4 = CYP3A4 (Homo sapiens, UniProt P08684); settings: FIG. 16 diagram; cited from earlier work
CYP3A5 = CYP3A5 (Homo sapiens, UniProt P20815); settings: FIG. 16 diagram; cited from earlier work
[1] = tested on: HuH-7 CYP3A5 *3/*3 cell line; experiment: Midazolam and tacrolimus metabolism assay, parental HuH-7 cells
Method: (§1) To further characterize the cell lines, metabolism assays were performed to determine the effect of each genetic variant on metabolism. FIG. 11 illustrates a generalized representative assay. In this exemplary assay, a cell line is plated on a collagen I-coated plate (or in a well of a multi-well plate, etc.), layered with an extracellular-matrix-like hydrogel (e.g., […], Corning Life Sciences, Tewksbury, Mass.), induced with a suitable inducer (e.g., rifampin and phenytoin), then treated with the substrate MDZ. The MDZ substrate is converted by the metabolic processes of the cell line to 1-OH MDZ or 4-OH MDZ, which can be measured using, for example high performance liquid chromatography (HPLC). The assay can be altered depending on the substrate, cell line, genetic variant, and any other experimental conditions.
(§2) In this metabolism assay, all three exemplary cell lines and HuH-7 parental cell line were grown to confluency and then layered with […] (Corning Life Sciences, Tewksbury, Mass.). The cells were then induced with rifampicin and phenytoin for three days and treated with substrate Tac overnight. Cell culture media were collected after treatment and assayed for Tac disappearance using liquid chromatography-mass spectrometry.
(§3) HuH-7 and engineered cells were grown to confluence in 12 well BIOCOAT collagen I multi-well plates (Corning, Inc., Corning, N.Y.) for 3-4 weeks in DMEM. Cells were then overlaid with […] matrix (Corning, Inc., Corning, N.Y.) and then induced for four days by adding 100 μM phenytoin (USP) and 10 μM rifampicin to the cell culture, with media changed daily with inducers. On the fourth day, 500 μl of media was added to the cells with 100 μM phenytoin (USP) and 10 μM rifampicin with either equal volumes of methanol, as a negative control, or Midazolam (MDZ; Cerrilliant Corp., Round Rock, Tex.) diluted in methanol so that MDZ final concentration was 5 μM in cell culture media. Cells were incubated overnight, and media was collected and assayed for MDZ, 1-OH MDZ and 4-OH MDZ by high performance liquid chromatography.
(§4) To determine the metabolic function of the engineered cell lines, the cells were treated with MDZ at 1628 ng/mL (5 μM) in cell culture overnight. The following day, the cell culture media was harvested and analyzed by liquid chromatography/mass spectrometry (LC/MS) at the University of Minnesota Department of Experimental and Clinical Pharmacology to quantify the concentrations of MDZ and the metabolites 1-hydroxy-midazolam (1-OH MDZ) and 4-hydroxy-midazolam (4-OH MDZ).
(§5) Likewise, Tac was added to cells and analyzed by LC/MS at the University of Minnesota Department of Experimental and Clinical Pharmacology. […]

[2] = tested on: CYP3A5 *1/*3 sd cell line; experiment: Midazolam and tacrolimus metabolism assay, CYP3A5 *1/*3 sd cells
Method: as §1, §2, §3, §4, §5

[3] = tested on: CYP3A5 *1/*1 dd cell line; experiment: Midazolam and tacrolimus metabolism assay, CYP3A5 *1/*1 dd cells
Method: as §1, §2
HuH-7 and engineered cells were grown to confluence in 12 well BIOCOAT collagen I multi-well plates (Corning, Inc., Corning, N.Y.) for 3-4 weeks in DMEM. […]
as §4, §5

[4] = tested on: CYP3A5 *1/*3 pm cell line; experiment: Midazolam and tacrolimus metabolism assay, CYP3A5 *1/*3 pm cells
Method: as §1, §2, §3, §4, §5

[5] = kidney transplant patients, cited from earlier work

Sequence of CYP3A4 (P08684 whole entry): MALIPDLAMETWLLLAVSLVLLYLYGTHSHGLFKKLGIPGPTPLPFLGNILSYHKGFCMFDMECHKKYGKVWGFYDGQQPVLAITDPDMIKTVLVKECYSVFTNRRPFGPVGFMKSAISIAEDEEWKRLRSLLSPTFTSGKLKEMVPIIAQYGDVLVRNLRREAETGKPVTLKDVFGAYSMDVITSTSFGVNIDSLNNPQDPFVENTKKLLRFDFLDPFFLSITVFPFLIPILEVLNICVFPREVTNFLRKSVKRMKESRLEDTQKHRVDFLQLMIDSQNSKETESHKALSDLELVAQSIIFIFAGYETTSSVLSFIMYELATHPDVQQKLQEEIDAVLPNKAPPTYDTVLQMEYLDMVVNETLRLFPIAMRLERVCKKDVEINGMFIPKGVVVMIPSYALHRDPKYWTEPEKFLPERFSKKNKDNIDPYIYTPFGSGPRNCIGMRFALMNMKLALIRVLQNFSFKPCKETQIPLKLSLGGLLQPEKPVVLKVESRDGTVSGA
Sequence of CYP3A5 (P20815 whole entry): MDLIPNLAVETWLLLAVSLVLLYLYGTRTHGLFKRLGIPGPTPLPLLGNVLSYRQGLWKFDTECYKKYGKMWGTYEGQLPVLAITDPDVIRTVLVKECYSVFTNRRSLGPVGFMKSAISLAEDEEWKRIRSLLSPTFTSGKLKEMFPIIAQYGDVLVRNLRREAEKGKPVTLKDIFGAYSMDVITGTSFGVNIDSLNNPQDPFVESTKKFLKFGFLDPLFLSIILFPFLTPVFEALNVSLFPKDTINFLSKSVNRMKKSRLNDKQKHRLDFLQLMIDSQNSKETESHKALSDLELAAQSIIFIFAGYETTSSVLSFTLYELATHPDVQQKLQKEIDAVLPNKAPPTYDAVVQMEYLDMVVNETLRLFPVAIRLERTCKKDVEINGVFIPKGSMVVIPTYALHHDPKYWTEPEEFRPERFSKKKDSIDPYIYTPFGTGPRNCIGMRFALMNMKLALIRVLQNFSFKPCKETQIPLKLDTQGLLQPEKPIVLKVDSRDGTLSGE

Cc1ccc(-c2c(-c3nn(C)c4ncnc(N5CC[C@H](N6CCCCC6)C5)c34)cnn2C)cc1 [CYP3CIDE]
inhibitory function on CYP3A4 (CYP3A4): strong inhibitor | inhibitory function on CYP3A5 (CYP3A5): mild inhibitory effect | inhibition of 1-OH MDZ production ([1]; 50 μM CYP3CIDE, HuH-7 cells, MDZ substrate, FIG. 19): nearly completely inhibited | inhibition of 4-OH MDZ production ([1]; 50 μM CYP3CIDE, HuH-7 cells, MDZ substrate, FIG. 20): inhibited

Cc1ncc2n1-c1ccc(Cl)cc1C(c1ccccc1F)=NC2 [Midazolam, midazolam]
MDZ disappearance ([2]; CYP3A5 *1/*3 sd, FIG. 13, five biological replicates): more efficiently than the parental HuH-7 cell line | Midazolam (ng/mL) No CYP3CIDE ([2]; CYP3A5 *1/*3 sd, start 5 μM MDZ, overnight, no CYP3CIDE, mean ± SD of six): 971 ± 110 ng/mL | Midazolam (ng/mL) With CYP3CIDE ([2]; CYP3A5 *1/*3 sd, start 5 μM MDZ, overnight, with 50 μM CYP3CIDE, mean ± SD of six): 1241 ± 64 ng/mL | MDZ disappearance ([3]; FIG. 13, five biological replicates): the most MDZ disappearance | Midazolam (ng/mL) No CYP3CIDE ([3]; start 5 μM MDZ, overnight, no CYP3CIDE, mean ± SD of six): 724 ± 200 ng/mL | Midazolam (ng/mL) With CYP3CIDE ([3]; start 5 μM MDZ, overnight, with 50 μM CYP3CIDE, mean ± SD of six): 1189 ± 90 ng/mL | MDZ disappearance ([4]; CYP3A5 *1/*3 pm, FIG. 13, five biological replicates): more efficiently than the parental HuH-7 cell line | Midazolam (ng/mL) No CYP3CIDE ([4]; CYP3A5 *1/*3 pm, start 5 μM MDZ, overnight, no CYP3CIDE, mean ± SD of six): 1130 ± 45 ng/mL | Midazolam (ng/mL) With CYP3CIDE ([4]; CYP3A5 *1/*3 pm, start 5 μM MDZ, overnight, with 50 μM CYP3CIDE, mean ± SD of six): 1224 ± 18 ng/mL | Midazolam (ng/mL) No CYP3CIDE ([1]; HuH-7 CYP3A5 *3/*3, start 5 μM (approximately 1629 ng/ml) MDZ, overnight, no CYP3CIDE, mean ± SD of six): 1458 ± 62 ng/mL | Midazolam (ng/mL) With CYP3CIDE ([1]; HuH-7 CYP3A5 *3/*3, start 5 μM (approximately 1629 ng/ml) MDZ, overnight, with 50 μM CYP3CIDE, mean ± SD of six): 1534 ± 32 ng/mL

C=CC[C@@H]1/C=C(\C)C[C@H](C)C[C@H](OC)[C@H]2O[C@@](O)(C(=O)C(=O)N3CCCC[C@H]3C(=O)O[C@H](/C(C)=C/[C@@H]3CC[C@@H](O)[C@H](OC)C3)[C@H](C)[C@@H](O)CC1=O)[C@H](C)C[C@@H]2OC [Tac, tacrolimus]
Tac disappearance ([2]; human, 13 ng/mL): more efficiently than the parental HuH-7 cell line | reduction in log-transformed dose-normalized troughs ([5]; one CYP3A5 *1 allele present): 36% | reduction in log-transformed dose-normalized troughs ([5]; two CYP3A5 *1 alleles present): 59% | Tac disappearance ([4]; human, 13 ng/mL): more efficiently than the parental HuH-7 cell line
